Results taken from patent US10864191B2, “5-HT6 receptor antagonists for use in the treatment of Alzheimer's disease with apathy as comorbidity” (H. Lundbeck A/S, priority 2016, dated 2020).

How the values were obtained:
[1] = system: donepezil-treated patients with moderate Alzheimer's disease; experiment: LADDER study: cognition (ADAS-cog) in donepezil-treated patients, incl. post-hoc analysis by NPI apathy score; type: in vivo, human
Procedure: The […] study that was conducted to assess the effect on cognitive performance of idalopirdine in donepezil-treated patients with moderate Alzheimer's disease. The […] study is registered with ClinicalTrials.gov, number NCT01019421 and is reported in Wilkinson D, et al. Safety and efficacy of idalopirdine, a 5-HT6 receptor antagonist, in patients with moderate Alzheimer's disease (LADDER): a randomised, double-blind, placebo-controlled phase 2 trial Lancet Neurol 2014; 13: 141-49. […] Patients were randomly assigned (1:1) to double-blind treatment with idalopirdine or placebo. The cognitive subscale of the 70-point, 11-item Alzheimer's Disease Assessment Scale (ADAS-cog) was rated at baseline and at weeks 4, 12, and 24. The ADAS-Cog scale is described in Rosen W G et al. A new scale for Alzheimer's disease. Am J Psychiatry 1984; 141: 1356-64. […] Subsequent to the analysis of the primary and secondary endpoints of the […] study as described in Example 2 above a post-hoc analysis was conducted. […] For the post-hoc analysis apathy was considered present if the apathy score as measured by Neuropsychiatric Inventory (NPI) was 1 or higher. The statistical analysis predicted a significant interaction at a 5% significance level between apathy score and treatment effect of idalopirdine on cognition as measured by the ADAS-Cog score (a negative score means less decline in cognitive skills and is thus desirable): […]

[2] = system: donepezil-treated patients with moderate Alzheimer's disease; experiment: LADDER study post-hoc analysis: Activities of Daily Living (ADCS-ADL) by NPI apathy score; type: in vivo, human
Procedure: Patients were randomly assigned (1:1) to double-blind treatment with idalopirdine or placebo. The same patient population as in Example 3 was analysed in a post-hoc analysis. For the post-hoc analysis apathy was considered present if the apathy score as measured by Neuropsychiatric Inventory (NPI) was 1 or higher. The statistical analysis predicted a significant interaction at a 5% significance level between apathy score and treatment effect of idalopirdine on Activities of Daily Living as measured by the ADCS-ADL score (Galasko et al; An inventory to assess activities of daily living for clinical trials in Alzheimer's Disease. Alzheimer Dis Assoc Disord. 1997;11(Suppl 2):22-32) (a positive score means an improvement): […]

h5-HT1A = target: T1, h5-HT1A (Homo sapiens, UniProt P08908); conditions: cited from earlier work
T1 sequence (P08908 1-422): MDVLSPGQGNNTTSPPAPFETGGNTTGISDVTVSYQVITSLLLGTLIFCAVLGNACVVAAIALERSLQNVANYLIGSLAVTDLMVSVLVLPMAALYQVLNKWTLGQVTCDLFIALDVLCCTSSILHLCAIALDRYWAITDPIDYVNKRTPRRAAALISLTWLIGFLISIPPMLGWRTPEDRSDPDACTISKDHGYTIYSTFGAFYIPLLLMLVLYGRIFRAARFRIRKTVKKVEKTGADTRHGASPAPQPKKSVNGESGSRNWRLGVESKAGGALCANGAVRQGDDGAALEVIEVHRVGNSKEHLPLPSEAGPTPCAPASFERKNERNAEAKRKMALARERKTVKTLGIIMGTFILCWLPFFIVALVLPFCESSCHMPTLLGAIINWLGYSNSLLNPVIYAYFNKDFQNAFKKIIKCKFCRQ

h5-HT1B = h5-HT1B (Homo sapiens, UniProt P28222); conditions: cited from earlier work
h5-HT1D = h5-HT1D (Homo sapiens, UniProt P28221); conditions: cited from earlier work
h5-HT1E = h5-HT1E (Homo sapiens, UniProt P28566); conditions: cited from earlier work
h5-HT1F = target: T2, h5-HT1F (Homo sapiens, UniProt P30939); conditions: cited from earlier work
T2 sequence (P30939 1-366): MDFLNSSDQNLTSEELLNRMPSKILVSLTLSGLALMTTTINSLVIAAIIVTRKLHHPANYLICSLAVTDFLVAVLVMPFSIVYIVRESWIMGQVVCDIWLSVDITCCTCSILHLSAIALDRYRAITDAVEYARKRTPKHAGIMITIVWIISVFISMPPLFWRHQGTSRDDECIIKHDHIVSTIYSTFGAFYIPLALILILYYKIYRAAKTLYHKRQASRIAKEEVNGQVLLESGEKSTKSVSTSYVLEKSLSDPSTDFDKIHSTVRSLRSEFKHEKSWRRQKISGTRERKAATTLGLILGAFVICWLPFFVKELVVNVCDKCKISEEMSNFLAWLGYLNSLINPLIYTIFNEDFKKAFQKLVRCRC

h5-HT2A = h5-HT2A (Homo sapiens, UniProt P28223); conditions: cited from earlier work
h5-HT2B = h5-HT2B (Homo sapiens, UniProt P41595); conditions: cited from earlier work
h5-HT7 = h5-HT7 (Homo sapiens, UniProt P34969); conditions: cited from earlier work
[3] = system: donepezil-treated patients with moderate Alzheimer's disease; conditions: add-on to donepezil 10 mg per day, all patients; cited from earlier work
[4] = system: donepezil-treated patients with moderate Alzheimer's disease; conditions: add-on to donepezil; cited from earlier work

Chain of h5-HT2B (P41595 whole entry): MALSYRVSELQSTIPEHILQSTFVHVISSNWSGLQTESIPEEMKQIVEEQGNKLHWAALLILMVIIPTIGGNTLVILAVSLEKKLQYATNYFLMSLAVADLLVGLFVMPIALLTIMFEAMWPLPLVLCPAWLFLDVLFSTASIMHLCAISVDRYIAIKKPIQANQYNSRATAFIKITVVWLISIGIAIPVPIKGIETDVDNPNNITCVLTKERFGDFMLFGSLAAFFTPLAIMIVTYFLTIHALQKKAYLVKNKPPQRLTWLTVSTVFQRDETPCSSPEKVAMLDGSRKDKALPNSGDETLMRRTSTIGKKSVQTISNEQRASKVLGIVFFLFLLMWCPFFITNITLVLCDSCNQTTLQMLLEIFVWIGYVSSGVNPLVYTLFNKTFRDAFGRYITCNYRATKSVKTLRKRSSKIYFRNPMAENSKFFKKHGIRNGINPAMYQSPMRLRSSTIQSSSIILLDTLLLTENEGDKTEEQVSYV
Chain of h5-HT1D (P28221 whole entry): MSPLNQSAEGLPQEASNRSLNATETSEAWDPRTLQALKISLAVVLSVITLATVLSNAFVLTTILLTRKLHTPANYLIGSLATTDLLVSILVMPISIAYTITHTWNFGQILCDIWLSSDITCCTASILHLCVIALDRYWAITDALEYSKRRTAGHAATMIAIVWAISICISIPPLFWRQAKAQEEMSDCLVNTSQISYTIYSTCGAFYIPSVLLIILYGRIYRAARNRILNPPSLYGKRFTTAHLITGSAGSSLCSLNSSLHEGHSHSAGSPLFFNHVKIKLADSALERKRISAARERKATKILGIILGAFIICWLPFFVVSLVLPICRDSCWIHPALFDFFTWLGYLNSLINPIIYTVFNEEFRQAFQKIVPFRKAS
Chain of h5-HT1E (P28566 whole entry): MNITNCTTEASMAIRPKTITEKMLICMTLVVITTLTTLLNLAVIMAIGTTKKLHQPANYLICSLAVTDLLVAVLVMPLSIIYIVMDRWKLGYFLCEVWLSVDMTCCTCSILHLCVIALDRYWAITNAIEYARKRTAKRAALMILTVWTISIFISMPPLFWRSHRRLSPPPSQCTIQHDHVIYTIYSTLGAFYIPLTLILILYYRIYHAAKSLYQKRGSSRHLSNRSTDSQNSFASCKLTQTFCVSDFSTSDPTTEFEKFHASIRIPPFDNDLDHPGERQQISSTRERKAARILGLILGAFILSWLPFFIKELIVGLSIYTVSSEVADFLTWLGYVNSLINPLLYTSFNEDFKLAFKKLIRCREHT
Chain of h5-HT7 (P34969 whole entry): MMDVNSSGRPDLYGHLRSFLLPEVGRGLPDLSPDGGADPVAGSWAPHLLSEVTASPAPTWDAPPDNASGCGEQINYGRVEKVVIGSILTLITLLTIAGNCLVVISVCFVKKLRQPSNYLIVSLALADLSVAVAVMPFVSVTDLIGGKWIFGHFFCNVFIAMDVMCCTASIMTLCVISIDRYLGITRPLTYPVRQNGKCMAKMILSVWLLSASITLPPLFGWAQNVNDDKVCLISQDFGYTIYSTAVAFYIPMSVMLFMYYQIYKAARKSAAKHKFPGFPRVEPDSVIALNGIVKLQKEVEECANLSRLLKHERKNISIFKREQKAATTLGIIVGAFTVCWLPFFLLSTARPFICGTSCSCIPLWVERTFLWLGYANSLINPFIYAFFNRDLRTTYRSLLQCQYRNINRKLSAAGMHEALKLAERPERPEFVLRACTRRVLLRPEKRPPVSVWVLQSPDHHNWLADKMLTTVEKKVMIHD
Chain of h5-HT2A (P28223 whole entry): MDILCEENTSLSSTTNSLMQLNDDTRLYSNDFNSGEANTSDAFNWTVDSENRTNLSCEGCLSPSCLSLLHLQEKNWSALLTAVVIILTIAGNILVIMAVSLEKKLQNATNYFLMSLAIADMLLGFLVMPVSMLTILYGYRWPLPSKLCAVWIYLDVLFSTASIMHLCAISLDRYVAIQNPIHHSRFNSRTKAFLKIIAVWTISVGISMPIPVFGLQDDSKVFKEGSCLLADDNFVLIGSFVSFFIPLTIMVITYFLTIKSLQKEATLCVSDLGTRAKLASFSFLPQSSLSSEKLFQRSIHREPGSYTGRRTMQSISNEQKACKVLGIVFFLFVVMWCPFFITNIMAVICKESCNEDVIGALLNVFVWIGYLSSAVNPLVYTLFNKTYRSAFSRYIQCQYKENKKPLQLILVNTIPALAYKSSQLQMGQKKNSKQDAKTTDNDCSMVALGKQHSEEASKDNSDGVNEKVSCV
Chain of h5-HT1B (P28222 whole entry): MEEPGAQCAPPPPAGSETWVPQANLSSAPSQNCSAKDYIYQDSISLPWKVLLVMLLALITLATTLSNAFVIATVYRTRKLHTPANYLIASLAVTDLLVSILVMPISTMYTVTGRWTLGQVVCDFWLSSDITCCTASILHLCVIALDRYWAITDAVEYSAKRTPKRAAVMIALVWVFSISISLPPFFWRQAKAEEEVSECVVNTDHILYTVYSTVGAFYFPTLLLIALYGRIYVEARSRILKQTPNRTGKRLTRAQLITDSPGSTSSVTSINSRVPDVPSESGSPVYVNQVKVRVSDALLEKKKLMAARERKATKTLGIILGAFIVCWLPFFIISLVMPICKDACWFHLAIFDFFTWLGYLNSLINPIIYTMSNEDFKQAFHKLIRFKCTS

In the case of Fc1ccc2c(CCNCc3cccc(OCC(F)(F)C(F)F)c3)c[nH]c2c1 [idalopirdine, N-(2-(6-fluoro-1H-indol-3-yl)ethyl)-3-(2,2,3,3-tetrafluoropropoxy)-benzylamine], the “Estimated change in effect on cognition at week 24 per unit increase in NPI apathy item score (Estimate)” value ([1]; ADAS-Cog score, negative = less decline, add-on to donepezil) is reported as −0.64, the “Effect on cognition at week 24 in patients without apathy (Estimate)” value ([1]; ADAS-Cog, NPI apathy score 0, add-on to donepezil) is reported as −0.81 and the “Effect on cognition at week 24 in patients with apathy (Estimate)” value ([1]; ADAS-Cog, NPI apathy score 1 or higher, add-on to donepezil) is reported as −3.8. The “Estimated change in effect on ADL at week 24 per unit increase in NPI apathy item score (Estimate)” value ([2]; ADCS-ADL score, positive = improvement, add-on to donepezil) was 0.92, the “Effect on ADL at week 24 in patients without apathy (Estimate)” value ([2]; ADCS-ADL, NPI apathy score 0, add-on to donepezil) was 0.39 and the “Effect on ADL at week 24 in patients with apathy (Estimate)” value ([2]; ADCS-ADL, NPI apathy score 1 or higher, add-on to donepezil) was 2.89. The Ki (h5-HT1A) was 2.3 µM, the Ki (h5-HT1B) was greater than 10 µM and the Ki (h5-HT1D) was 2.6 µM. For the same molecule, the Ki (h5-HT1E) was greater than 4.6 µM, the Ki (h5-HT1F) was 2.4 µM and the Ki (h5-HT2A) was 0.083 µM. For the same molecule, the Ki (h5-HT2B) was greater than 4.1 µM, the Ki (h5-HT7) was greater than 10 µM and the “Change from baseline in the ADAS-cog at week 24 (primary endpoint) versus placebo” value [3] was “significantly better with idalopirdine than with placebo”. The “Effects on pre-specified secondary efficacy endpoints at week 24” value [4] was “None of the effects of idalopirdine on the pre-specified secondary endpoints were statistically significant”.
